How the values were obtained:
Assay in all cases: DiscoverX scanEDGE kinase panel
Type in all cases: binding
Settings in all cases: Cmpd Conc 1000 nM, read-out: % Ctrl
CDK11 = target: T1, CDK11 (Homo sapiens, UniProt Q9BWU1)
T1 construct: purchased DiscoverX (DiscoveRx) KINOMEscan scanEDGE / KdELECT
From the text: (§1) We hypothesized that inhibitors of the normal and flipped modes would display distinct selectivity profiles.
(§2) 1. 16 and 21 kinome selectivity data
(§3) (P – phosphorylated; nP – nonphosphorylated; % Ctrl values show the % of DNAEtagged
(§4) kinase which was not displaced from a solid supported ligand by a test compound relative to
(§5) untreated control, quantified by qPCR).
(§6) Please note: ALKs 1, 2, 3, 4, 5 and 6 are listed by their gene symbols: ACVRL1 (ALK1), ACVR1
(§7) (ALK2), BMPR1A (ALK3), ACVR1B (ALK4), TGFBR1 (ALK5) and BMPR1B (ALK6)
(§8) Cmpd DiscoverX Gene Symbol Entrez Gene Symbol % Ctrl Cmpd Conc (nM)

GSK3B = target: T2, GSK3B (Homo sapiens, UniProt P49841)
T2 construct: purchased DiscoverX (DiscoveRx) KINOMEscan scanEDGE / KdELECT
From the text: as §1, §2, §3, §4, §5, §6, §7, §8

RET = target: T3, RET (Homo sapiens, UniProt P07949)
T3 construct: purchased DiscoverX (DiscoveRx) KINOMEscan scanEDGE / KdELECT
From the text: as §1, §2, §3, §4, §5, §6, §7, §8

PDGFRA = target: T4, PDGFRA (Homo sapiens, UniProt P16234)
T4 construct: purchased DiscoverX (DiscoveRx) KINOMEscan scanEDGE / KdELECT
From the text: as §1, §2, §3, §4, §5, §6, §7, §8

SIK2 = target: T5, SIK2 (Homo sapiens, UniProt Q9H0K1)
T5 construct: purchased DiscoverX (DiscoveRx) KINOMEscan scanEDGE / KdELECT
From the text: as §1, §2, §3, §4, §5, §6, §7, §8

ACVR1B (ALK4) = target: T6, ACVR1B (ALK4) (Homo sapiens, UniProt P36896)
T6 construct: purchased DiscoverX (DiscoveRx) KINOMEscan scanEDGE / KdELECT
From the text: as §1, §2, §3, §4, §5, §6, §7, §8

RAF1 = target: T7, RAF1 (Homo sapiens, UniProt P04049)
T7 construct: purchased DiscoverX
From the text: as §1, §2, §3, §4, §5, §6, §7, §8

PIK3CG = target: T8, PIK3CG (Homo sapiens, UniProt P48736)
T8 construct: purchased DiscoverX (DiscoveRx) KINOMEscan scanEDGE / KdELECT
From the text: as §1, §2, §3, §4, §5, §6, §7, §8

PLK3 = target: T9, PLK3 (Homo sapiens, UniProt Q9H4B4)
T9 construct: purchased DiscoverX (DiscoveRx) KINOMEscan scanEDGE / KdELECT
From the text: as §1, §2, §3, §4, §5, §6, §7, §8

ROCK2 = target: T10, ROCK2 (Homo sapiens, UniProt O75116)
T10 construct: purchased DiscoverX (DiscoveRx) KINOMEscan scanEDGE / KdELECT
From the text: as §1, §2, §3, §4, §5, §6, §7, §8

ABL1EP = target: T11, ABL1EP (Homo sapiens, UniProt P00519)
T11 construct: purchased DiscoverX (DiscoveRx) KINOMEscan scanEDGE / KdELECT
From the text: as §1, §2, §3, §4, §5, §6, §7, §8

RIOK2 = target: T12, RIOK2 (Homo sapiens, UniProt Q9BVS4)
T12 construct: purchased DiscoverX (DiscoveRx) KINOMEscan scanEDGE / KdELECT
From the text: as §1, §2, §3, §4, §5, §6, §7, §8

CSF1R = target: T13, CSF1R (Homo sapiens, UniProt P07333)
T13 construct: purchased DiscoverX (DiscoveRx) KINOMEscan scanEDGE / KdELECT
From the text: as §1, §2, §3, §4, §5, §6, §7, §8

JNK1 = target: T14, JNK1 (Homo sapiens, UniProt P45983)
T14 construct: purchased DiscoverX (DiscoveRx) KINOMEscan scanEDGE / KdELECT
From the text: as §1, §2, §3, §4, §5, §6, §7, §8

IGF1R = target: T15, IGF1R (Homo sapiens, UniProt P08069)
T15 construct: purchased DiscoverX (DiscoveRx) KINOMEscan scanEDGE / KdELECT
From the text: as §1, §2, §3, §4, §5, §6, §7, §8

SRPK3 = target: T16, SRPK3 (Homo sapiens, UniProt Q9UPE1)
T16 construct: purchased DiscoverX (DiscoveRx) KINOMEscan scanEDGE / KdELECT
From the text: as §1, §2, §3, §4, §5, §6, §7, §8

ZAP70 = target: T17, ZAP70 (Homo sapiens, UniProt P43403)
T17 construct: purchased DiscoverX (DiscoveRx) KINOMEscan scanEDGE / KdELECT
From the text: as §1, §2, §3, §4, §5, §6, §7, §8

DCAMKL1 = target: T18, DCAMKL1 (Homo sapiens, UniProt O15075)
T18 construct: purchased DiscoverX (DiscoveRx) KINOMEscan scanEDGE / KdELECT
From the text: as §1, §2, §3, §4, §5, §6, §7, §8

AKT1 = target: T19, AKT1 (Homo sapiens, UniProt P31749)
T19 construct: purchased DiscoverX (DiscoveRx) KINOMEscan scanEDGE / KdELECT
From the text: as §1, §2, §3, §4, §5, §6, §7, §8

AXL = target: T20, AXL (Homo sapiens, UniProt P30530)
T20 construct: purchased DiscoverX (DiscoveRx) KINOMEscan scanEDGE / KdELECT
From the text: as §1, §2, §3, §4, §5, §6, §7, §8

ABL1EnP = target: T21, ABL1EnP (Homo sapiens, UniProt P00519)
T21 construct: purchased DiscoverX (DiscoveRx) KINOMEscan scanEDGE / KdELECT
From the text: as §1, §2, §3, §4, §5, §6, §7, §8

KIT(D816H) = target: T22, KIT(D816H) (Homo sapiens, UniProt P10721, D816H)
T22 construct: purchased DiscoverX (DiscoveRx) KINOMEscan scanEDGE / KdELECT
From the text: as §1, §2, §3, §4, §5, §6, §7, §8

JNK2 = target: T23, JNK2 (Homo sapiens, UniProt P45984)
T23 construct: purchased DiscoverX (DiscoveRx) KINOMEscan scanEDGE / KdELECT
From the text: as §1, §2, §3, §4, §5, §6, §7, §8

TYK2(JH1domain) = target: T24, TYK2(JH1domain) (Homo sapiens, UniProt P29597)
T24 construct: TYK2(JH1domain); purchased DiscoverX (DiscoveRx) KINOMEscan scanEDGE / KdELECT
From the text: as §1, §2, §3, §4, §5, §6, §7, §8

BTK = target: T25, BTK (Homo sapiens, UniProt Q06187)
T25 construct: purchased DiscoverX (DiscoveRx) KINOMEscan scanEDGE / KdELECT
From the text: as §1, §2, §3, §4, §5, §6, §7, §8

CDK2 = target: T26, CDK2 (Homo sapiens, UniProt P24941)
T26 construct: purchased DiscoverX (DiscoveRx) KINOMEscan scanEDGE / KdELECT
From the text: as §1, §2, §3, §4, §5, §6, §7, §8

MINK = target: T27, MINK (Homo sapiens, UniProt Q8N4C8)
T27 construct: purchased DiscoverX (DiscoveRx) KINOMEscan scanEDGE / KdELECT
From the text: as §1, §2, §3, §4, §5, §6, §7, §8

PKACEalpha = target: T28, PKACEalpha (Homo sapiens, UniProt P17612)
T28 construct: purchased DiscoverX (DiscoveRx) KINOMEscan scanEDGE / KdELECT
From the text: as §1, §2, §3, §4, §5, §6, §7, §8

p38Ebeta = target: T29, p38Ebeta (Homo sapiens, UniProt Q15759)
T29 construct: purchased DiscoverX (DiscoveRx) KINOMEscan scanEDGE / KdELECT
From the text: as §1, §2, §3, §4, §5, §6, §7, §8

ABL1(T315I)EP = target: T30, ABL1(T315I)EP (Homo sapiens, UniProt P00519, T315I)
T30 construct: purchased DiscoverX (DiscoveRx) KINOMEscan scanEDGE / KdELECT
From the text: as §1, §2, §3, §4, §5, §6, §7, §8

CDK3 = target: T31, CDK3 (Homo sapiens, UniProt Q00526)
T31 construct: purchased DiscoverX (DiscoveRx) KINOMEscan scanEDGE / KdELECT
From the text: as §1, §2, §3, §4, §5, §6, §7, §8

MARK3 = target: T32, MARK3 (Homo sapiens, UniProt P27448)
T32 construct: purchased DiscoverX (DiscoveRx) KINOMEscan scanEDGE / KdELECT
From the text: as §1, §2, §3, §4, §5, §6, §7, §8

CSNK1D = target: T33, CSNK1D (Homo sapiens, UniProt P48730)
T33 construct: purchased DiscoverX (DiscoveRx) KINOMEscan scanEDGE / KdELECT
From the text: as §1, §2, §3, §4, §5, §6, §7, §8

PIM3 = target: T34, PIM3 (Homo sapiens, UniProt Q86V86)
T34 construct: purchased DiscoverX (DiscoveRx) KINOMEscan scanEDGE / KdELECT
From the text: as §1, §2, §3, §4, §5, §6, §7, §8

TSSK1B = target: T35, TSSK1B (Homo sapiens, UniProt Q9BXA7)
T35 construct: purchased DiscoverX (DiscoveRx) KINOMEscan scanEDGE / KdELECT
From the text: as §1, §2, §3, §4, §5, §6, §7, §8

CDK9 = target: T36, CDK9 (Homo sapiens, UniProt P50750)
T36 construct: purchased DiscoverX (DiscoveRx) KINOMEscan scanEDGE / KdELECT
From the text: as §1, §2, §3, §4, §5, §6, §7, §8

MKNK1 = target: T37, MKNK1 (Homo sapiens, UniProt Q9BUB5)
T37 construct: purchased DiscoverX (DiscoveRx) KINOMEscan scanEDGE / KdELECT
From the text: as §1, §2, §3, §4, §5, §6, §7, §8

TNK1 = target: T38, TNK1 (Homo sapiens, UniProt Q13470)
T38 construct: purchased DiscoverX (DiscoveRx) KINOMEscan scanEDGE / KdELECT
From the text: as §1, §2, §3, §4, §5, §6, §7, §8

ERK1 = target: T39, ERK1 (Homo sapiens, UniProt P27361)
T39 construct: purchased DiscoverX (DiscoveRx) KINOMEscan scanEDGE / KdELECT
From the text: as §1, §2, §3, §4, §5, §6, §7, §8

T38 sequence (Q13470 whole entry): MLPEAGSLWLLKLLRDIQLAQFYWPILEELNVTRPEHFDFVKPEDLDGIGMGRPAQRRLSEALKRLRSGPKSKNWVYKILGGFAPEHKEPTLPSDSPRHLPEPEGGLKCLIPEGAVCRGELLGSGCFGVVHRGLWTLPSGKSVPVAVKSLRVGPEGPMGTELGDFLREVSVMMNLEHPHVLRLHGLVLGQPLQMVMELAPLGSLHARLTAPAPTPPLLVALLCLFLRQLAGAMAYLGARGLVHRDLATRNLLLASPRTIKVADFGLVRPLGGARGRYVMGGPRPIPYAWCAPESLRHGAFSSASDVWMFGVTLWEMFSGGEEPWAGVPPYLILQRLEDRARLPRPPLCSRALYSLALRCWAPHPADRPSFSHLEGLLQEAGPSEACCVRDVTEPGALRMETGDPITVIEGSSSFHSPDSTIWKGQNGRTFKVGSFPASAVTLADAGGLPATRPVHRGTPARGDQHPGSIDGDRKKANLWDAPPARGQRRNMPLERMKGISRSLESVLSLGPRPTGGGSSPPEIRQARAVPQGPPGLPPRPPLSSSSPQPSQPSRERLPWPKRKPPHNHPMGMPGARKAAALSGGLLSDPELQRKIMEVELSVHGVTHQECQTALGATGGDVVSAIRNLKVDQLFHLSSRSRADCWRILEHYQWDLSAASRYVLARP
T15 sequence (P08069 31-1367): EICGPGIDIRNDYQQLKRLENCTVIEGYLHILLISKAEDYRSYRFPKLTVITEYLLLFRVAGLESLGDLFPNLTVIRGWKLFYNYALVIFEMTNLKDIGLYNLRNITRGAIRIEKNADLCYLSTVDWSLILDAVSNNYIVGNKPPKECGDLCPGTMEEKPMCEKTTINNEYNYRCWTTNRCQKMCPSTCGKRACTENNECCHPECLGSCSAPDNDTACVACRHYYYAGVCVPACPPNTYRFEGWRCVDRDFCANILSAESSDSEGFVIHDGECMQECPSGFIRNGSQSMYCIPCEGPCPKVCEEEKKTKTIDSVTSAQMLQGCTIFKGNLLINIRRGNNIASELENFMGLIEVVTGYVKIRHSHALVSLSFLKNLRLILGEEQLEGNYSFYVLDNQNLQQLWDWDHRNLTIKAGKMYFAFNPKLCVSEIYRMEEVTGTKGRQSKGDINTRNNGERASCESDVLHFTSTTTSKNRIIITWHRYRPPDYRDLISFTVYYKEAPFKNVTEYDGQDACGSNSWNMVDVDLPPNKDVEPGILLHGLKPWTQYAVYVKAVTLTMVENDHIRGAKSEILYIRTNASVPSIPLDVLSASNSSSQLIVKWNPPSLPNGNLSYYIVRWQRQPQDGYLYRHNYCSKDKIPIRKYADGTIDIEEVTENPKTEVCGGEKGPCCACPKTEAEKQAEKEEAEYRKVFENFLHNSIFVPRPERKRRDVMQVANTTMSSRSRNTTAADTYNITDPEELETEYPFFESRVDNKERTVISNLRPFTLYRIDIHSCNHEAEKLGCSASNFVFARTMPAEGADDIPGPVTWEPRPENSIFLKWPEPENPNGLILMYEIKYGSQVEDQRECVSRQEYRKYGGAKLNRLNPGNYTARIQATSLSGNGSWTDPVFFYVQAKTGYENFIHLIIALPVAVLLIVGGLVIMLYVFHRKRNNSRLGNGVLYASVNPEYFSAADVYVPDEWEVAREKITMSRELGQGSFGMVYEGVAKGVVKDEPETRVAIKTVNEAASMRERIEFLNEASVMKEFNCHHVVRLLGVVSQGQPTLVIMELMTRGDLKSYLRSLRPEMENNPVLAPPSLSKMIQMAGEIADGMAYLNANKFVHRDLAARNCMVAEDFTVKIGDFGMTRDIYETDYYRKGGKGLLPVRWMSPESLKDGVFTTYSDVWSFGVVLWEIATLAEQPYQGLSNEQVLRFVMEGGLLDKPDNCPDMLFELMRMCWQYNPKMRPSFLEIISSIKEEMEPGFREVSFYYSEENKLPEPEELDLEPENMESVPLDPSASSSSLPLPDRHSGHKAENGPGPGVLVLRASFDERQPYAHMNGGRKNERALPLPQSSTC
T19 sequence (P31749 whole entry): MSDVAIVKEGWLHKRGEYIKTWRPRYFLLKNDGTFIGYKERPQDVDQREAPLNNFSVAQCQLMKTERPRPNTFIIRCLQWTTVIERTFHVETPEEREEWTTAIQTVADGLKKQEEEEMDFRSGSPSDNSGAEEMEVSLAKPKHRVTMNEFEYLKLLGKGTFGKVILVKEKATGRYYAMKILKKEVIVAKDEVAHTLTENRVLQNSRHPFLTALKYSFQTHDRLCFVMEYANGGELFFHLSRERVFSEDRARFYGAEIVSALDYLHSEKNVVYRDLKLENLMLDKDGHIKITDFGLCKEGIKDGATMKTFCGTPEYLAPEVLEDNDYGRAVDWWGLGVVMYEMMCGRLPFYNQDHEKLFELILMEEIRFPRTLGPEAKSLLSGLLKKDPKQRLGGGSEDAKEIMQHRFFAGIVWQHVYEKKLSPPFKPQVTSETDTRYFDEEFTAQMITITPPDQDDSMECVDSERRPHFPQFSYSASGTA
T39 sequence (P27361 whole entry): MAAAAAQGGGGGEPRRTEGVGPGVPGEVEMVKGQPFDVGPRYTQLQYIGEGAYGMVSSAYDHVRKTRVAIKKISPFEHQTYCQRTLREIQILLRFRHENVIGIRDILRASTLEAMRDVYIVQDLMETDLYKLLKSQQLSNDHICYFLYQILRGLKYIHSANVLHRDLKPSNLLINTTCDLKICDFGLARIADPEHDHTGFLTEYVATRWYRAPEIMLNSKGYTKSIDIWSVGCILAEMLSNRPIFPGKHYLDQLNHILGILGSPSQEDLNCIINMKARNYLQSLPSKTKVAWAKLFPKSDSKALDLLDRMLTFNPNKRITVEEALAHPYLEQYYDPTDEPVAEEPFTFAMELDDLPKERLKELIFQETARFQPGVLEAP
T37 sequence (Q9BUB5 whole entry): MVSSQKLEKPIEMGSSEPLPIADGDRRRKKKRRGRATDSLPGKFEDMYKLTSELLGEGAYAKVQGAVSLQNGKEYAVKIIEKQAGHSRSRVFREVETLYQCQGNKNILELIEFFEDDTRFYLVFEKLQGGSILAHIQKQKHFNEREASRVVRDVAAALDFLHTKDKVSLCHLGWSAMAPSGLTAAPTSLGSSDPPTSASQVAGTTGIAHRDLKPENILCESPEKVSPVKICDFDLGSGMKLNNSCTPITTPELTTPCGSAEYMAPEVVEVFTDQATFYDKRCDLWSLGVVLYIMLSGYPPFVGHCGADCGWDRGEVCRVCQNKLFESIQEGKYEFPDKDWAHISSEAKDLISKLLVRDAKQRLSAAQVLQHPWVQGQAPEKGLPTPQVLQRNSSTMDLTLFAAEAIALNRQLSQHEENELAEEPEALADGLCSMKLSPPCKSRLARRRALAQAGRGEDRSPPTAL
T3 sequence (P07949 29-1114): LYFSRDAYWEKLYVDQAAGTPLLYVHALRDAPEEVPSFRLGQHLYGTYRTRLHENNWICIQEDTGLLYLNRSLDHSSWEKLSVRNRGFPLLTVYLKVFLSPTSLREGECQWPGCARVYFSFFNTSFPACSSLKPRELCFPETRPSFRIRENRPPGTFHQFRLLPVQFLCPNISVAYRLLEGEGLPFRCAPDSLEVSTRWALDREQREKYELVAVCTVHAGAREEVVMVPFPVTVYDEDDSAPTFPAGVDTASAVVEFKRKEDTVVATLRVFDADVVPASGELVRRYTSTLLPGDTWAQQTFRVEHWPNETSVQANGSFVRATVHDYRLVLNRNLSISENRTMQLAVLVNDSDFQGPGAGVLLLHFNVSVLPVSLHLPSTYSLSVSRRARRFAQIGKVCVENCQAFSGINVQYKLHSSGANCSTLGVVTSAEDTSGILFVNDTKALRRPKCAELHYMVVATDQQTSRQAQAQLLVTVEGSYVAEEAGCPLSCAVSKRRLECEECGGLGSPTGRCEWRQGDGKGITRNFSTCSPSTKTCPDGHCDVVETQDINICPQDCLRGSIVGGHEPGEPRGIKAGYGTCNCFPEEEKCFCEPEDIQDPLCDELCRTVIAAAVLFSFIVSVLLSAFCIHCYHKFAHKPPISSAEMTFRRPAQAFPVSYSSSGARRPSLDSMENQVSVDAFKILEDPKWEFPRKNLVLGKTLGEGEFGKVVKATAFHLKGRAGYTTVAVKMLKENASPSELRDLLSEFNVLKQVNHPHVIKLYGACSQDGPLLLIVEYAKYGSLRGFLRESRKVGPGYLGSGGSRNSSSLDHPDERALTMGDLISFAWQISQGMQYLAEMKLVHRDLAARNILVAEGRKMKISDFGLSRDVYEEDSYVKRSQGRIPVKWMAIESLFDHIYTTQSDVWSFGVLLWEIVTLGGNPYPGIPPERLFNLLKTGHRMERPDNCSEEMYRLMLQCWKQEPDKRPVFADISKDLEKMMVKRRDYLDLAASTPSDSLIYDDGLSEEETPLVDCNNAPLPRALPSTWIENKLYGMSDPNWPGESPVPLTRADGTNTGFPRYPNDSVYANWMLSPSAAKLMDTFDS
T36 sequence (P50750 whole entry): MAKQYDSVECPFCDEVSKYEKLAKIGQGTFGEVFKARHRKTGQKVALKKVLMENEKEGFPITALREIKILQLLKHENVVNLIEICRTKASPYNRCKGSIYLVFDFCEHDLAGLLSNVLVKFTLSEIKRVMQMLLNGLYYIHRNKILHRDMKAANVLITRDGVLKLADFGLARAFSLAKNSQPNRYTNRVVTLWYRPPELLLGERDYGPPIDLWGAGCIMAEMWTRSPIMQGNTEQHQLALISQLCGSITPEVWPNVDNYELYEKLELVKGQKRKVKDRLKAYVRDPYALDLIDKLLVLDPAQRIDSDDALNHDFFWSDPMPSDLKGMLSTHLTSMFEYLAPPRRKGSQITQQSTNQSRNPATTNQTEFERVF

remaining binding at 1 µM (CDK11): 90% | remaining binding at 1 µM (GSK3B): 97% | remaining binding at 1 µM (RET): 99% | remaining binding at 1 µM (PDGFRA): 93% | remaining binding at 1 µM (SIK2): 100% | remaining binding at 1 µM (ACVR1B (ALK4)): 18% | remaining binding at 1 µM (RAF1): 25% | remaining binding at 1 µM (PIK3CG): 98% | remaining binding at 1 µM (PLK3): 96% | remaining binding at 1 µM (ROCK2): 100% | remaining binding at 1 µM (ABL1EP): 97% | remaining binding at 1 µM (RIOK2): 97% | remaining binding at 1 µM (CSF1R): 95% | remaining binding at 1 µM (JNK1): 91% | remaining binding at 1 µM (IGF1R): 94% | remaining binding at 1 µM (SRPK3): 96% | remaining binding at 1 µM (ZAP70): 99% | remaining binding at 1 µM (DCAMKL1): 87% | remaining binding at 1 µM (AKT1): 100% | remaining binding at 1 µM (AXL): 98% | remaining binding at 1 µM (ABL1EnP): 91% | remaining binding at 1 µM (KIT(D816H)): 90% | remaining binding at 1 µM (JNK2): 91% | remaining binding at 1 µM (TYK2(JH1domain)): 95% | remaining binding at 1 µM (BTK): 100% | remaining binding at 1 µM (CDK2): 100% | remaining binding at 1 µM (MINK): 89% | remaining binding at 1 µM (PKACEalpha): 100% | remaining binding at 1 µM (p38Ebeta): 99% | remaining binding at 1 µM (ABL1(T315I)EP): 97% | remaining binding at 1 µM (CDK3): 94% | remaining binding at 1 µM (MARK3): 83% | remaining binding at 1 µM (CSNK1D): 88% | remaining binding at 1 µM (PIM3): 98% | remaining binding at 1 µM (TSSK1B): 100% | remaining binding at 1 µM (CDK9): 100% | remaining binding at 1 µM (MKNK1): 93% | remaining binding at 1 µM (TNK1): 90% | remaining binding at 1 µM (ERK1): 98%
SMILES: Cc1nc2ccc(-c3ccnc4ccccc34)c(C)c2c(=O)[nH]1 [compound 21, 2,5-Dimethyl-6-(quinolin-4-yl)quinazolin-4(3H)-one]
